Assay results from ChEMBL document CHEMBL1135540, “Identification of a pharmacophore for thrombopoietic activity of small, non-peptidyl molecules. 2. Rational design of naphtho[1,2-d]imidazole thrombopoietin mimics” (J Med Chem, 2002).

How the values were obtained:
[1] = Activation of luciferase expression in the proliferation of UT7/TPO-R cell line.; type: functional; settings: Homo sapiens
[2] = (§1) Activation of luciferase expression in BAF-3/TPO-Rluc cell line.; type: cell-based; settings: Homo sapiens
[3] = Efficacy in activation of luciferase expression in BAF-3/TPO-Rluc cell line and the value is reported as %TPO; type: functional, Homo sapiens
[4] = as §1; type: functional, cell-based; settings: Homo sapiens
UT7 [5] = test: Efficacy in proliferation of the UT7/TPO-R cell line and the value is reported as %TPO; type: functional, Homo sapiens
[6] = Agonistic activity against proliferation of UT-7/TPO-R cell line; type: functional; settings: Homo sapiens, UT7/TPO-R
[7] = Efficacy in activation of luciferase expression in UT-7/TPO-R cell line and the value is reported as % salicylaldehyde thio-semicarbazone-thrombopoietin (TPO); type: functional, Homo sapiens
UT7 [8] = test: Effective concentration for proliferation of UT7/TPO-R cell line.; type: functional, cell-based; settings: Homo sapiens

EC50 [4] [µM] | Compound | TPO [3] [%] | TPO (UT7 [5]) [%] | further results
 | Cc1ccc(-c2cccc(/C=N/N=C(\S)Nc3cccc(C(=O)O)c3)c2O)cc1C |  |  | EC50 [1]: 30 nM
 | CC(C)(C)c1ccc(-c2cccc(-c3nc4c(ccc5cc(S(=O)(=O)O)cc(O)c54)[nH]3)c2)cc1 | 100 |  | EC50 [2]: 80 nM
26 | O=S(=O)(O)c1cc(O)c2c(ccc3[nH]c(-c4c(O)ccc5ccccc45)nc32)c1 | 11 | <10 | 
 | CC(C)(C)c1ccc(-c2cccc(-c3nc4c(ccc5cc(C(=O)O)cc(O)c54)[nH]3)c2)cc1 |  |  | EC50 [6]: 300 nM; TPO [7]: 60%
4.8 | O=S(=O)(O)c1cc2[nH]c(-c3ccc4ccccc4c3O)nc2c2c(O)cccc12 | 28 | <10 | 
1.2 | Cc1ccc(-c2cccc(-c3nc4c(ccc5cc(S(=O)(=O)O)cc(O)c54)[nH]3)c2O)cc1C | 36 | 70 | EC50 (UT7 [8]): 1000 nM
35 | O=S(=O)(O)c1cc2[nH]c(-c3c(O)ccc4ccccc34)nc2c2c(O)cccc12 | 52 | <10 | 
 | Cc1ccc(-n2[nH]c(C)c(/N=N/c3c(O)cc(S(=O)(=O)O)c4ccccc34)c2=O)cc1C |  |  | EC50 [1]: 40 nM
9.7 | O=S(=O)(O)c1cc(O)c2c(ccc3[nH]c(-c4ccc5ccccc5c4O)nc32)c1 | 27 | <10 | 
